In the supplement of paper PMC8960247:
Counter-ions that a name gives are not always drawn. ± gives the standard error.

test system: 621-103 (TSC2-rescued); assay: relative viability vs DMSO; higher = less cytotoxic; settings: 0.1 µM; serum: 10% FBS; 72 h
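Further: immortalized renal angiomyolipoma cells stably carrying empty vector or TSC2, dosed in 384-well plates in DMEM, viability normalized to vehicle-treated wells within each plate.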

Which relative viability does the source give for `CCS(=O)(=O)Nc1ccc2c(c1)/C(=C(/Nc1ccc(CN3CCCCC3)cc1)c1ccccc1)C(=O)N2` [Hesperadin] here?
The relative viability was 85.6 ± 0.14%.

With `CC[C@H](c1ccc(O)cc1)[C@@H](CC)c1ccc(O)cc1` [Hexestrol (Bibenzyl)] as the compound, how does the relative viability read?
The relative viability was 90 ± 2.3%.

With `O=C1[C@H](Cc2ccc(O)cc2)N2C(=O)CCN(C(=O)NCc3ccccc3)[C@H]2CN1Cc1cccc2ccccc12` [ICG-001] as the compound, how does the relative viability read?
The relative viability was 103 ± 1.3%.

`CCN(CC)Cc1ccc2cc(COC(=O)Nc3ccc(C(=O)NO)cc3)ccc2c1` [ITF2357] was tested. Which relative viability did it give?
The relative viability was 67.63 ± 0.33%.

`CC(C)Cc1ccc(C(C)C(=O)O)cc1` (configuration not stated) [Ibuprofen] was tested. Which relative viability did it give?
The relative viability was 99.61 ± 0.82%.

`COc1ccc(-c2oc3c(CC=C(C)C)c(O[C@@H]4O[C@H](CO)[C@@H](O)[C@H](O)[C@H]4O)cc(O)c3c(=O)c2O[C@@H]2O[C@@H](C)[C@H](O)[C@@H](O)[C@H]2O)cc1` [Icariin] was tested. Which relative viability did it give?
The relative viability was 101 ± 1.4%.

For `Cc1ccc(NC(=O)c2ccc(CN3CCN(C)CC3)cc2)cc1Nc1nccc(-c2cccnc2)n1` [Imatinib (STI571)], which relative viability is on record?
The relative viability was 101 ± 2%.

Which relative viability does the source give for `Cc1ccc(NC(=O)c2ccc(CN3CCN(C)CC3)cc2)cc1Nc1nccc(-c2cccnc2)n1` [Imatinib Mesylate] here?
Its relative viability is 97.9 ± 1.8%.

How did the relative viability turn out when `CCCCC1=NC2(CCCC2)C(=O)N1Cc1ccc(-c2ccccc2-c2nnn[nH]2)cc1` [Irbesartan (Avapro)] was run?
The relative viability was 102 ± 1.9%.

`CCc1c2c(nc3ccc(OC(=O)N4CCC(N5CCCCC5)CC4)cc13)-c1cc3c(c(=O)n1C2)COC(=O)[C@]3(O)CC` [Irinotecan HCl Trihydrate] was tested. Which relative viability did it give?
The relative viability was 101 ± 5.9%.

With `CCc1c2c(nc3ccc(OC(=O)N4CCC(N5CCCCC5)CC4)cc13)-c1cc3c(c(=O)n1C2)COC(=O)[C@]3(O)CC` [Irinotecan] as the compound, how does the relative viability read?
Its relative viability is 99.19 ± 0.57%.

For `Clc1ccc(C(Cn2ccnc2)OCc2c(Cl)cccc2Cl)c(Cl)c1` (configuration not stated) [Isoconazole], which relative viability is on record?
Its relative viability is 103.2 ± 0.24%.

How did the relative viability turn out when `CC(C)NCC(O)c1ccc(O)c(O)c1` (configuration not stated) [Isoprenaline HCl] was run?
Its relative viability is 94.2 ± 6.9%.

With `Cc1ccc(C(=O)N(CCCN)[C@@H](c2nc3cc(Cl)ccc3c(=O)n2Cc2ccccc2)C(C)C)cc1` [Ispinesibmesilate] as the compound, how does the relative viability read?
Its relative viability is 49.4 ± 1.4%.

same assay, conditions: 1 µM; serum: 10% FBS; 72 h

With `CCS(=O)(=O)Nc1ccc2c(c1)/C(=C(/Nc1ccc(CN3CCCCC3)cc1)c1ccccc1)C(=O)N2` [Hesperadin] as the compound, how does the relative viability read?
Its relative viability is 42.75 ± 0.27%.

How did the relative viability turn out when `CC[C@H](c1ccc(O)cc1)[C@@H](CC)c1ccc(O)cc1` [Hexestrol (Bibenzyl)] was run?
Its relative viability is 95 ± 2.3%.

With `O=C1[C@H](Cc2ccc(O)cc2)N2C(=O)CCN(C(=O)NCc3ccccc3)[C@H]2CN1Cc1cccc2ccccc12` [ICG-001] as the compound, how does the relative viability read?
Its relative viability is 109 ± 1.5%.

Which relative viability does the source give for `CCN(CC)Cc1ccc2cc(COC(=O)Nc3ccc(C(=O)NO)cc3)ccc2c1` [ITF2357] here?
The relative viability was 26.9 ± 0.91%.

With `CC(C)Cc1ccc(C(C)C(=O)O)cc1` (configuration not stated) [Ibuprofen] as the compound, how does the relative viability read?
Its relative viability is 98.25 ± 0.82%.

Which relative viability does the source give for `COc1ccc(-c2oc3c(CC=C(C)C)c(O[C@@H]4O[C@H](CO)[C@@H](O)[C@H](O)[C@H]4O)cc(O)c3c(=O)c2O[C@@H]2O[C@@H](C)[C@H](O)[C@@H](O)[C@H]2O)cc1` [Icariin] here?
The relative viability was 98.3 ± 5.3%.

For `Cc1ccc(NC(=O)c2ccc(CN3CCN(C)CC3)cc2)cc1Nc1nccc(-c2cccnc2)n1` [Imatinib (STI571)], which relative viability is on record?
The relative viability was 94.4 ± 3.7%.

How did the relative viability turn out when `Cc1ccc(NC(=O)c2ccc(CN3CCN(C)CC3)cc2)cc1Nc1nccc(-c2cccnc2)n1` [Imatinib Mesylate] was run?
Its relative viability is 98.3 ± 4.3%.

Which relative viability does the source give for `CCCCC1=NC2(CCCC2)C(=O)N1Cc1ccc(-c2ccccc2-c2nnn[nH]2)cc1` [Irbesartan (Avapro)] here?
The relative viability was 103 ± 4%.

How did the relative viability turn out when `CCc1c2c(nc3ccc(OC(=O)N4CCC(N5CCCCC5)CC4)cc13)-c1cc3c(c(=O)n1C2)COC(=O)[C@]3(O)CC` [Irinotecan HCl Trihydrate] was run?
Its relative viability is 99.3 ± 1.9%.

Which relative viability does the source give for `CCc1c2c(nc3ccc(OC(=O)N4CCC(N5CCCCC5)CC4)cc13)-c1cc3c(c(=O)n1C2)COC(=O)[C@]3(O)CC` [Irinotecan] here?
Its relative viability is 84.6 ± 1.1%.

Which relative viability does the source give for `Clc1ccc(C(Cn2ccnc2)OCc2c(Cl)cccc2Cl)c(Cl)c1` (configuration not stated) [Isoconazole] here?
Its relative viability is 108 ± 1.4%.

Which relative viability does the source give for `CC(C)NCC(O)c1ccc(O)c(O)c1` (configuration not stated) [Isoprenaline HCl] here?
The relative viability was 91.3 ± 2.6%.

With `Cc1ccc(C(=O)N(CCCN)[C@@H](c2nc3cc(Cl)ccc3c(=O)n2Cc2ccccc2)C(C)C)cc1` [Ispinesibmesilate] as the compound, how does the relative viability read?
Its relative viability is 53.36 ± 0.26%.

same assay, conditions: 10 µM; serum: 10% FBS; 72 h

Which relative viability does the source give for `CCS(=O)(=O)Nc1ccc2c(c1)/C(=C(/Nc1ccc(CN3CCCCC3)cc1)c1ccccc1)C(=O)N2` [Hesperadin] here?
The relative viability was 3.8 ± 0.2%.

Which relative viability does the source give for `CC[C@H](c1ccc(O)cc1)[C@@H](CC)c1ccc(O)cc1` [Hexestrol (Bibenzyl)] here?
Its relative viability is 95.35 ± 0.45%.

How did the relative viability turn out when `O=C1[C@H](Cc2ccc(O)cc2)N2C(=O)CCN(C(=O)NCc3ccccc3)[C@H]2CN1Cc1cccc2ccccc12` [ICG-001] was run?
Its relative viability is 37.8 ± 0.69%.

For `CCN(CC)Cc1ccc2cc(COC(=O)Nc3ccc(C(=O)NO)cc3)ccc2c1` [ITF2357], which relative viability is on record?
The relative viability was 3.1 ± 0.064%.

Which relative viability does the source give for `CC(C)Cc1ccc(C(C)C(=O)O)cc1` (configuration not stated) [Ibuprofen] here?
The relative viability was 98.82 ± 0.41%.

For `COc1ccc(-c2oc3c(CC=C(C)C)c(O[C@@H]4O[C@H](CO)[C@@H](O)[C@H](O)[C@H]4O)cc(O)c3c(=O)c2O[C@@H]2O[C@@H](C)[C@H](O)[C@@H](O)[C@H]2O)cc1` [Icariin], which relative viability is on record?
The relative viability was 116 ± 3.7%.

With `Cc1ccc(NC(=O)c2ccc(CN3CCN(C)CC3)cc2)cc1Nc1nccc(-c2cccnc2)n1` [Imatinib (STI571)] as the compound, how does the relative viability read?
Its relative viability is 96.9 ± 4.7%.

For `Cc1ccc(NC(=O)c2ccc(CN3CCN(C)CC3)cc2)cc1Nc1nccc(-c2cccnc2)n1` [Imatinib Mesylate], which relative viability is on record?
The relative viability was 94.8 ± 4.8%.

`CCCCC1=NC2(CCCC2)C(=O)N1Cc1ccc(-c2ccccc2-c2nnn[nH]2)cc1` [Irbesartan (Avapro)] was tested. Which relative viability did it give?
Its relative viability is 107.2 ± 0.91%.

Which relative viability does the source give for `CCc1c2c(nc3ccc(OC(=O)N4CCC(N5CCCCC5)CC4)cc13)-c1cc3c(c(=O)n1C2)COC(=O)[C@]3(O)CC` [Irinotecan HCl Trihydrate] here?
Its relative viability is 57.5 ± 2.7%.

For `CCc1c2c(nc3ccc(OC(=O)N4CCC(N5CCCCC5)CC4)cc13)-c1cc3c(c(=O)n1C2)COC(=O)[C@]3(O)CC` [Irinotecan], which relative viability is on record?
The relative viability was 30.2 ± 0.71%.

With `Clc1ccc(C(Cn2ccnc2)OCc2c(Cl)cccc2Cl)c(Cl)c1` (configuration not stated) [Isoconazole] as the compound, how does the relative viability read?
The relative viability was 95.32 ± 0.49%.

Which relative viability does the source give for `CC(C)NCC(O)c1ccc(O)c(O)c1` (configuration not stated) [Isoprenaline HCl] here?
Its relative viability is 83.3 ± 1.6%.

For `Cc1ccc(C(=O)N(CCCN)[C@@H](c2nc3cc(Cl)ccc3c(=O)n2Cc2ccccc2)C(C)C)cc1` [Ispinesibmesilate], which relative viability is on record?
The relative viability was 1.19 ± 0.11%.
